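Values below derive from 48-hour exposures of cells grown in 96-well plates, with endpoints linearly interpolated between the two concentrations bracketing the appropriate inhibition level. GI50 is the concentration that inhibits growth by half.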 The source made the active and inactive calls. Rule as the data show it: active = GI50 up to about 1.1 µM and inactive = higher.
Tests used:
Test in all cases: DTP human tumour cell line panel, 48 h
HCT-15 = tested on: HCT-15
NCI-H23 = tested on: NCI-H23
NCI-H522 = tested on: NCI-H522
OVCAR-5 = tested on: OVCAR-5
XF498 = tested on: XF498
NCI-H460 = tested on: NCI-H460
U-251 = tested on: U-251
CAKI-1 = tested on: CAKI-1
MCF7 = tested on: MCF7
CCRF-CEM = tested on: CCRF-CEM
DMS-273 = tested on: DMS-273
DLD-1 = tested on: DLD-1
SN12C = tested on: SN12C
UACC-62 = tested on: UACC-62
SW-620 = tested on: SW-620
HCC 2998 = tested on: HCC 2998
HL-60 = tested on: HL-60
LOX IMVI = tested on: LOX IMVI
HOP-92 = tested on: HOP-92
SF-539 = tested on: SF-539
A549 = tested on: A549
COLO 205 = tested on: COLO 205
SNB-78 = tested on: SNB-78
SF-295 = tested on: SF-295
KM-20L2 = tested on: KM-20L2
SK-MEL-5 = tested on: SK-MEL-5
NCI/ADR-RES = tested on: NCI/ADR-RES
RPMI-8226 = tested on: RPMI-8226
DMS-114 = tested on: DMS-114
KM12 = tested on: KM12
EKVX = tested on: EKVX
SK-OV-3 = tested on: SK-OV-3
SK-MEL-2 = tested on: SK-MEL-2
IGROV-1 = tested on: IGROV-1
SNB-75 = tested on: SNB-75
NCI-H226 = tested on: NCI-H226
SF-268 = tested on: SF-268
SNB-19 = tested on: SNB-19
UO-31 = tested on: UO-31
OVCAR-8 = tested on: OVCAR-8
HOP-62 = tested on: HOP-62
HCT-116 = tested on: HCT-116
HOP-18 = tested on: HOP-18
M19-MEL = tested on: M19-MEL
SK-MEL-28 = tested on: SK-MEL-28
K562 = tested on: K562
HT-29 = tested on: HT-29
OVCAR-4 = tested on: OVCAR-4
A498 = tested on: A498
RXF 393 = tested on: RXF 393
OVCAR-3 = tested on: OVCAR-3
UACC-257 = tested on: UACC-257
MOLT-4 = tested on: MOLT-4

`O=C1C2=C(C3=NCCc4c[nH]c1c43)c1c(cc(Br)c(O)c1Br)CCN2` was tested, and the GI50 (HCT-15) was 11.5 µM, the GI50 (NCI-H23) was 13.4 µM (inactive) and the GI50 (NCI-H522) was 2 µM (inactive). For the same compound, the GI50 (OVCAR-5) was 25.2 µM (inactive), the GI50 (XF498) was 13.9 µM (inactive) and the GI50 (NCI-H460) was 9.27 µM (inactive). For the same compound, the GI50 (U-251) was 11.9 µM (inactive), the GI50 (CAKI-1) was 20.3 µM (inactive) and the GI50 (MCF7) was 7.69 µM (inactive). The GI50 (CCRF-CEM) was 2.56 µM (inactive), the GI50 (DMS-273) was 12.6 µM (inactive) and the GI50 (DLD-1) was 8.2 µM (inactive). The GI50 (SN12C) was 14.1 µM (inactive), the GI50 (UACC-62) was 3.47 µM (inactive) and the GI50 (SW-620) was 15.2 µM (inactive). The GI50 (HCC 2998) was 5.55 µM (inactive), the GI50 (HL-60) was 3.48 µM (inactive) and the GI50 (LOX IMVI) was 6.67 µM (inactive). For the same compound, the GI50 (HOP-92) was 20.6 µM (inactive), the GI50 (SF-539) was 13.5 µM (inactive) and the GI50 (A549) was 18.6 µM (inactive). For the same compound, the GI50 (COLO 205) was 3.31 µM (inactive), the GI50 (SNB-78) was 5.64 µM (inactive) and the GI50 (SF-295) was 7.13 µM (inactive). The GI50 (KM-20L2) was 5.07 µM (inactive), the GI50 (SK-MEL-5) was 9.1 µM (inactive) and the GI50 (NCI/ADR-RES) was 14.5 µM (inactive). For the same compound, the GI50 (RPMI-8226) was 5.01 µM (inactive), the GI50 (DMS-114) was 2.96 µM (inactive) and the GI50 (KM12) was 13.4 µM (inactive). The GI50 (EKVX) was 17.8 µM (inactive), the GI50 (SK-OV-3) was 7.41 µM (inactive) and the GI50 (SK-MEL-2) was 13.6 µM (inactive). The GI50 (IGROV-1) was 13.6 µM (inactive), the GI50 (SNB-75) was 16.3 µM (inactive) and the GI50 (NCI-H226) was 16.5 µM (inactive). The GI50 (SF-268) was 9.25 µM (inactive), the GI50 (SNB-19) was 17.9 µM (inactive) and the GI50 (UO-31) was 18.2 µM (inactive). The GI50 (OVCAR-8) was 8.53 µM (inactive), the GI50 (HOP-62) was 25.3 µM (inactive) and the GI50 (HCT-116) was 14.5 µM (inactive). For the same compound, the GI50 (HOP-18) was 20 µM (inactive), the GI50 (M19-MEL) was 2.79 µM (inactive) and the GI50 (SK-MEL-28) was 17.2 µM (inactive). For the same compound, the GI50 (K562) was 15 µM (inactive), the GI50 (HT-29) was 6.59 µM (inactive) and the GI50 (OVCAR-4) was 11 µM (inactive). The GI50 (A498) was 20.2 µM (inactive), the GI50 (RXF 393) was 14.8 µM (inactive) and the GI50 (OVCAR-3) was 2.73 µM (inactive). For the same compound, the GI50 (UACC-257) was 7.5 µM (inactive) and the GI50 (MOLT-4) was 2.81 µM (inactive).

— ChEMBL document CHEMBL1201862, “PubChem BioAssay data set” (2004)
